Assay results reported in patent US20120101093A1, “SUBSTITUTED IMIDAZO[1,2-A]PYRIDINE DERIVATIVES, PHARMACEUTICAL COMPOSITIONS, AND METHODS OF USE AS BETA-SECRETASE INHIBITORS” (HIGH POINT PHARMACEUTICALS, LLC, priority 2009, published 2012).

The compounds below were run against T1, BACE-1 enzyme (Homo sapiens, UniProt P56817) (assay: BACE Fluorescence Resonance Energy Transfer (FRET) Assay). Details: pH 4-4.5, 30 min pre-incubation, about 1.5 hours reaction.
T1 construct: purchased R & D Systems 931AS
T1 sequence (P56817 46-457 limits assumed): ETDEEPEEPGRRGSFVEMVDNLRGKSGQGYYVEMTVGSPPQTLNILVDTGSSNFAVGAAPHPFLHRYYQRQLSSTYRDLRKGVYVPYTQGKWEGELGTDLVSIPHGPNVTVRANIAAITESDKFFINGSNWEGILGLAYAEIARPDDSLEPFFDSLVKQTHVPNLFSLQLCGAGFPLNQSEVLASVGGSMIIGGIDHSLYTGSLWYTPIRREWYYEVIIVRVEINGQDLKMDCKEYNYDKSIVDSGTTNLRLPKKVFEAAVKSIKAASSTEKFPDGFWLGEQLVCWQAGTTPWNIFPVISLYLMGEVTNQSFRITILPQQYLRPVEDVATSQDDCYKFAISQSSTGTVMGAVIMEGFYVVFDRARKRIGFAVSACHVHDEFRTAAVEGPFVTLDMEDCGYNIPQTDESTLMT
Format: biochemical
Experimental: BACE Fluorescence Resonance Energy Transfer (FRET) Assay
In the following assay, the proteolytic activity of BACE is measured by observing cleavage of a fluorescent group from a peptide substrate containing a rhodamine fluorescent donor and a quenching acceptor.
The inhibitory activity of compounds of Formula (I) may be compared to a statine derived control inhibitor STA200 (MP Biomedical Cat. #STA-200). The cleavage reaction occurs when a BACE-1 substrate (Invitrogen, Cat. #P2986) was added to a reaction mixture containing BACE-1 enzyme (R & D Systems, Cat. #931AS) and allowed to proceed for about 1.5 hours. Fluorescence, used as a marker of BACE activity, is monitored using 540 nm excitation and 585 nm emission wavelengths (Envision, Perkin Elmer).
A typical assay reaction contains BACE-1 enzyme—in assay buffer (50 mM sodium acetate, pH 4-4.5, 0.01% CHAPS (3-[(3-Cholamidopropyl)dimethylammonio]-1-propanesulfonate), 0.0125% TritonX-100, 0.006% EDTA) which is pre-incubated for 30 minutes with test compound in 7.5% DMSO. The reaction is initiated with the addition of BACE-1 substrate in assay buffer and allowed to proceed for about 1.5 hours at room temperature. Assays are conducted in black 384-well microtiter plates and scanned at room temperature using 540 nm excitation and 585 nm emission wavelengths.
In some instances, the percent inhibition at a given concentration is reported instead of the IC50.

IC50 [µM] | SMILES
0.45 | Cc1ccc2nc(C(=O)Nc3nc4cc(OCc5ccc(C(F)(F)F)cc5)ccc4[nH]3)cn2c1 [Example 60, 6-Methyl-imidazo[1,2-a]pyridine-2-carboxylic acid [5-(4-trifluoromethyl-benzyloxy)-1H-benzoimidazol-2-yl]-amide]
0.28 | Cc1cccc2nc(C(=O)Nc3nc4cc(-c5cc(Cl)cc(C(F)(F)F)c5)ccc4[nH]3)cn12 [Example 66, 5-Methyl-imidazo[1,2-a]pyridine-2-carboxylic acid [6-(3-chloro-5-trifluoromethyl-phenyl)-1H-benzoimidazol-2-yl]-amide]
0.53 | Cc1cccc2nc(C(=O)Nc3nc4cc(-c5cc(C(F)(F)F)ccc5Cl)ccc4[nH]3)cn12 [Example 67, 5-Methyl-imidazo[1,2-a]pyridine-2-carboxylic acid [5-(2-chloro-5-trifluoromethyl-phenyl)-1H-benzoimidazol-2-yl]-amide]
1.24 | Cc1cccc2nc(C(=O)Nc3nc4cc(-c5ccc(S(C)(=O)=O)cc5)ccc4[nH]3)cn12 [Example 73, 5-Methyl-imidazo[1,2-a]pyridine-2-carboxylic acid [5-(4-methanesulfonyl-phenyl)-1H-benzoimidazol-2-yl]-amide]
1.72 | Cc1cccc2nc(C(=O)Nc3nc4cc(-c5cccc(S(C)(=O)=O)c5)ccc4[nH]3)cn12 [Example 74, 5-Methyl-imidazo[1,2-a]pyridine-2-carboxylic acid [5-(3-methanesulfonyl-phenyl)-1H-benzoimidazol-2-yl]-amide]
2.07 | Cc1cccn2cc(C(=O)Nc3nc4cc(-c5cccc(S(C)(=O)=O)c5)ccc4[nH]3)nc12 [Example 75, 8-Methyl-imidazo[1,2-a]pyridine-2-carboxylic acid [5-(3-methanesulfonyl-phenyl)-1H-benzoimidazol-2-yl]-amide]
1.72 | CCOc1ccc(-c2ccc3[nH]c(NC(=O)c4cn5cccc(C)c5n4)nc3c2)cc1F [Example 81, 8-Methyl-imidazo[1,2-a]pyridine-2-carboxylic acid [5-(4-ethoxy-3-fluoro-phenyl)-1H-benzoimidazol-2-yl]-amide]
1.93 | Cc1cccc2nc(C(=O)Nc3nc4cc(C5CCCCC5)ccc4[nH]3)cn12 [Example 85, 5-Methyl-imidazo[1,2-a]pyridine-2-carboxylic acid (5-cyclohexyl-1H-benzoimidazol-2-yl)-amide]
0.28 | Cc1cccn2cc(C(=O)Nc3nc4cc(-c5cc(Cl)cc(C(F)(F)F)c5)ccc4[nH]3)nc12 [Example 86, 8-Methyl-imidazo[1,2-a]pyridine-2-carboxylic acid [5-(3-chloro-5-trifluoromethyl-phenyl)-1H-benzoimidazol-2-yl]-amide]
0.29 | Cc1cccn2cc(C(=O)Nc3nc4cc(-c5cc(Cl)ccc5Cl)ccc4[nH]3)nc12 [Example 88, 8-Methyl-imidazo[1,2-a]pyridine-2-carboxylic acid [5-(2,5-dichloro-phenyl)-1H-benzoimidazol-2-yl]-amide]
2.28 | COc1ccc(-c2ccc3[nH]c(NC(=O)c4cn5cccc(C)c5n4)nc3c2)cc1C(F)(F)F [Example 89, 8-Methyl-imidazo[1,2-a]pyridine-2-carboxylic acid [5-(4-methoxy-3-trifluoromethyl-phenyl)-1H-benzoimidazol-2-yl]-amide]
0.49 | Cc1cccc2nc(C(=O)Nc3nc4cc(-c5ccc(OC(C)C)c(Cl)c5)ccc4[nH]3)cn12 [Example 90, 5-Methyl-imidazo[1,2-a]pyridine-2-carboxylic acid [5-(3-chloro-4-isopropoxy-phenyl)-1H-benzoimidazol-2-yl]-amide]
0.44 | Cc1cccc2nc(C(=O)Nc3nc4cc(-c5ccc(C(F)(F)F)cc5Cl)ccc4[nH]3)cn12 [Example 91, 5-Methyl-imidazo[1,2-a]pyridine-2-carboxylic acid [5-(2-chloro-4-trifluoromethyl-phenyl)-1H-benzoimidazol-2-yl]-amide]
1.78 | Cc1cccn2cc(C(=O)Nc3nc4cc(-c5ccc(C(F)(F)F)c(Cl)c5)ccc4[nH]3)nc12 [Example 93, 8-Methyl-imidazo[1,2-a]pyridine-2-carboxylic acid [5-(3-chloro-4-trifluoromethyl-phenyl)-1H-benzoimidazol-2-yl]-amide]
0.42 | Cc1cccc2nc(C(=O)Nc3nc4cc(-c5cc(F)cc(C(F)(F)F)c5)ccc4[nH]3)cn12 [Example 94, 5-Methyl-imidazo[1,2-a]pyridine-2-carboxylic acid [5-(3-fluoro-5-trifluoromethyl-phenyl)-1H-benzoimidazol-2-yl]-amide]
0.32 | Cc1cccn2cc(C(=O)Nc3nc4cc(-c5cc(F)cc(C(F)(F)F)c5)ccc4[nH]3)nc12 [Example 95, 8-Methyl-imidazo[1,2-a]pyridine-2-carboxylic acid [5-(3-fluoro-5-trifluoromethyl-phenyl)-1H-benzoimidazol-2-yl]-amide]
1.17 | Cc1cccc2nc(C(=O)Nc3nc4cc(-c5cnc(N(C)C)nc5)ccc4[nH]3)cn12 [Example 96, 5-Methyl-imidazo[1,2-a]pyridine-2-carboxylic acid [5-(2-dimethylamino-pyrimidin-5-yl)-1H-benzoimidazol-2-yl]-amide]
0.44 | Cc1cccc2nc(C(=O)Nc3nc4cc(-c5ccc(OC(F)(F)F)cc5)ccc4[nH]3)cn12 [Example 98, 5-Methyl-imidazo[1,2-a]pyridine-2-carboxylic acid [5-(4-trifluoromethoxy-phenyl)-1H-benzoimidazol-2-yl]-amide]
0.3 | Cc1cccc2nc(C(=O)Nc3nc4cc(-c5ccc(C6CCCCC6)cc5)ccc4[nH]3)cn12 [Example 101, 5-Methyl-imidazo[1,2-a]pyridine-2-carboxylic acid [5-(4-cyclohexyl-phenyl)-1H-benzoimidazol-2-yl]-amide]
1.74 | Cc1cccc2nc(C(=O)Nc3nc4cc(-c5ccc(O)c(F)c5)ccc4[nH]3)cn12 [Example 103, 5-Methyl-imidazo[1,2-a]pyridine-2-carboxylic acid [5-(3-fluoro-4-hydroxy-phenyl)-1H-benzoimidazol-2-yl]-amide]
0.31 | CCc1cccc2nc(C(=O)Nc3nc4cc(-c5cccc(C(F)(F)F)c5)ccc4[nH]3)cn12 [Example 104, 5-Ethyl-imidazo[1,2-a]pyridine-2-carboxylic acid [5-(3-trifluoromethyl-phenyl)-1H-benzoimidazol-2-yl]-amide]
1.79 | COc1cc(F)ccc1-c1ccc2[nH]c(NC(=O)c3cn4c(C)cccc4n3)nc2c1 [Example 105, 5-Methyl-imidazo[1,2-a]pyridine-2-carboxylic acid [5-(4-fluoro-2-methoxy-phenyl)-1H-benzoimidazol-2-yl]-amide]
0.39 | CCOc1ccc(-c2ccc3[nH]c(NC(=O)c4cn5c(C)cccc5n4)nc3c2)c(Cl)c1 [Example 108, 5-Methyl-imidazo[1,2-a]pyridine-2-carboxylic acid [5-(2-chloro-4-ethoxy-phenyl)-1H-benzoimidazol-2-yl]-amide]
0.22 | O=C(Nc1nc2cc(-c3cccc(C(F)(F)F)c3)ccc2[nH]1)c1cn2c(Br)cccc2n1 [Example 111, 5-Bromo-imidazo[1,2-a]pyridine-2-carboxylic acid [5-(3-trifluoromethyl-phenyl)-1H-benzoimidazol-2-yl]-amide]
0.46 | O=C(Nc1nc2cc(-c3cc(F)cc(Cl)c3)ccc2[nH]1)c1cn2cc(F)ccc2n1 [Example 113, 6-Fluoro-imidazo[1,2-a]pyridine-2-carboxylic acid [5-(3-chloro-5-fluoro-phenyl)-1H-benzoimidazol-2-yl]-amide]
0.29 | CCOC(=O)c1ccn2cc(C(=O)Nc3nc4cc(-c5cc(F)cc(Cl)c5)ccc4[nH]3)nc2c1 [Example 114, 2-[5-(3-Chloro-5-fluoro-phenyl)-1H-benzoimidazol-2-ylcarbamoyl]-imidazo[1,2-a]pyridine-7-carboxylic acid ethyl ester]
0.38 | O=C(Nc1nc2cc(-c3cc(F)cc(Cl)c3)ccc2[nH]1)c1cn2ccccc2n1 [Example 116, Imidazo[1,2-a]pyridine-2-carboxylic acid [5-(3-chloro-5-fluoro-phenyl)-1H-benzoimidazol-2-yl]-amide]
0.99 | Cc1cccc2nc(C(=O)Nc3nc4cc(C5CCCC5)ccc4[nH]3)cn12 [Example 118, 5-Methyl-imidazo[1,2-a]pyridine-2-carboxylic acid (5-cyclopentyl-1H-benzoimidazol-2-yl)-amide]
0.49 | Cc1ccc(-c2ccc3[nH]c(NC(=O)c4cn5c(C)cccc5n4)nc3c2)cc1 [Example 120, 5-Methyl-imidazo[1,2-a]pyridine-2-carboxylic acid (5-p-tolyl-1H-benzoimidazol-2-yl)-amide]
1.17 | O=C(Nc1nc2cc(-c3cccc(C(F)(F)F)c3)ccc2[nH]1)c1cn2c(-c3ccccc3)cccc2n1 [Example 125, 5-Phenyl-imidazo[1,2-a]pyridine-2-carboxylic acid [5-(3-trifluoromethyl-phenyl)-1H-benzoimidazol-2-yl]-amide]
